Measurements: patent US20260373119A1, “NOVEL COMPOUND, AND COMPOSITION FOR PREVENTING OR TREATING HER2-POSITIVE CANCER, COMPRISING SAME” (EWHA UNIVERSITY - INDUSTRY COLLABORATION FOUNDATION, priority 2022, published 2026)
≈ marks a conversion by molar mass, not a printed value.

How the values were obtained:
[1] = system: T47D (HER2-negative breast cancer cell line); assay: antiproliferative effect, T47D; assay type: cell-based; settings: Homo sapiens, 72 hours
Procedure: The antiproliferative effects were measured after treating Compounds 1 to 22 for 72 hours on HCT15 (HER2-positive colorectal cancer cell line), NCI-N87 (HER2-positive gastric cancer cell line), T47D (HER2-negative breast cancer cell line), and HeLa (HER2-negative cervical cancer cell line). As a result, strong antiproliferative effects were generally observed in the NCI-N87 cell line (Table 2).
The antiproliferative effects of the candidate compound, resulting from HER2 inhibition, were evaluated. Specifically, to confirm the anticancer effects of the candidate compound, cancer cells were seeded at a density of 10^4 cells/well in a 96-well cell culture plate for 20 hours. The cells were starved in serum-free media for 4 hours, followed by replacement with media containing the compound at specified concentrations. The cells were then incubated for 72 hours under conditions of 5% CO2 at 37 °C. Cell viability was determined by adding 5 μL of EZ-CytoX to each well and measuring absorbance at 450 nm. The measurements were performed using an ELISA Microplate Reader (VersaMax, Molecular Devices).

MED23391-625 fragment = MED23391-625 fragment (Homo sapiens, UniProt Q9ULK4); assay: LC-MS/MS protein-small molecule interaction, MED23 fragments; assay type: binding
Chain of MED23391-625 fragment (Q9ULK4 391-625): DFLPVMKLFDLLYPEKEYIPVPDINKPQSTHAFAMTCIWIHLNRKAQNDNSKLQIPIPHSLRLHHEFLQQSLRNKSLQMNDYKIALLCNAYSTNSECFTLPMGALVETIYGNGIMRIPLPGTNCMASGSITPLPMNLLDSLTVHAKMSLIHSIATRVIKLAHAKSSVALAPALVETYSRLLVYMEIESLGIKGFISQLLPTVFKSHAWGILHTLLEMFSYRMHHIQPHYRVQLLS

[2] = target: Nluc-ELF3 / Cluc-MED23391-462 (Homo sapiens, UniProt Q9ULK4); assay: split luciferase biosensor assay; assay type: cell-based; settings: dose-dependent
Chain of Nluc-ELF3 / Cluc-MED23391-462 (Q9ULK4 391-462): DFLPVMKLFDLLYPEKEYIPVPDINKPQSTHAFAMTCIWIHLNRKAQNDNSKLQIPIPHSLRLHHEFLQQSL
Procedure: The biosensor used for the assay was prepared using the In-Fusion® HD Cloning Kit with firefly (Photinus pyralis) luciferase. The luciferase enzyme was split into two fragments (Nluc and Cluc). The full-length ELF3 (wild-type) and MED23 mutants were cloned into the […] and KpnI sites, and the NotI and KpnI sites of p3Xflag-myc-CMV26, respectively. The full-length cDNA of human ELF3 (accession number NM_001114309.1) was fused to the N-terminal fragment of split luciferase (Nluc), while the […] of MED23 (accession number NM_001270521.1) was fused to the C-terminal of split luciferase (Cluc).
Bioluminescence intensity, complementarily generated by ELF3-MED23 binding, was measured using this method (FIG. 3B).

MED23-IRF7 PPI = target: T1, MED23-IRF7 PPI (Homo sapiens, UniProt Q9ULK4); assay: immunoprecipitation, MED23-IRF7 PPI; assay type: cell-based
T1 construct: co-immunoprecipitation of IRF7, probably endogenous
T1 sequence (Q9ULK4 whole entry): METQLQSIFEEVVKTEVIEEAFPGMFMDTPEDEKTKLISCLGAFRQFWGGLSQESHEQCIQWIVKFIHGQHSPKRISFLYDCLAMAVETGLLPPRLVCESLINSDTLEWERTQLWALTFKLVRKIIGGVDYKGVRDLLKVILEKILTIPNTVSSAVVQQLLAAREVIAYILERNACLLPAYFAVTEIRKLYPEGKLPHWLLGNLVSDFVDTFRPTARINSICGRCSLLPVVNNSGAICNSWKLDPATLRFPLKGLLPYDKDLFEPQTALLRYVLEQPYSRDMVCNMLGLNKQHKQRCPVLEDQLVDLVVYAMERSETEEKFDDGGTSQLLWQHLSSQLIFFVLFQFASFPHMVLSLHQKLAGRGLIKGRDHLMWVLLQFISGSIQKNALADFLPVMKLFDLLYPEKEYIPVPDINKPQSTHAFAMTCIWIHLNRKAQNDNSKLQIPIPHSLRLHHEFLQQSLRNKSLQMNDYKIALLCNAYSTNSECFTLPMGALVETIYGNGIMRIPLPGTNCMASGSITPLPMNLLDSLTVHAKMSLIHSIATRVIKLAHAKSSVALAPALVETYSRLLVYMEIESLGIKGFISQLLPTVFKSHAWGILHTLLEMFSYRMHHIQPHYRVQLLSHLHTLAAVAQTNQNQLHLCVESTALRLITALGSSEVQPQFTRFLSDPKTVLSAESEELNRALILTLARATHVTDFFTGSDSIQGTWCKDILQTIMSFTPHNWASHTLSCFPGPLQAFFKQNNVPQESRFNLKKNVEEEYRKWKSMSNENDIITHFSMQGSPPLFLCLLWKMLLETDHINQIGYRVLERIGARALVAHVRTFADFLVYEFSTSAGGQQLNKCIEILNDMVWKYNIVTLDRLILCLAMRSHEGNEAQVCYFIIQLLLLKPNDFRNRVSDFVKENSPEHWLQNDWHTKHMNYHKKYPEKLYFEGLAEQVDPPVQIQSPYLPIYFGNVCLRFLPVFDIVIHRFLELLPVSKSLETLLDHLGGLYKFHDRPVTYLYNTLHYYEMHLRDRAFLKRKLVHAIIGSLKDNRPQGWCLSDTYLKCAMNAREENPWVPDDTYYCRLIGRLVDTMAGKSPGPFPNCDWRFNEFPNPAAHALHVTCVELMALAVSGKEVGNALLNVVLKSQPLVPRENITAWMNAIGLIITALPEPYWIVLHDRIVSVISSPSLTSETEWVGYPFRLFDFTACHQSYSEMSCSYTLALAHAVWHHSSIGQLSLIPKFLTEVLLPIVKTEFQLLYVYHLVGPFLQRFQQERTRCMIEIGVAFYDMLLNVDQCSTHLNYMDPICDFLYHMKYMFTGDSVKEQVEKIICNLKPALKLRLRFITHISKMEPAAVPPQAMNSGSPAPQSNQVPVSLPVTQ
Procedure: NCI-N87 cells from a gastric cancer cell line were seeded in a 100 mm cell culture dish and cultured until they reached 60-70% confluence. The cultured cells were transfected with p3Xflag-myc-CMV26-empty or p3Xflag-myc-CMV26-MED23^WT plasmids using Lipofectamine® 2000 (Invitrogen, USA). After transfection, YK1 (5 μM) was added 12 hours post-transfection, and the cells were cultured for 12 hours. A total of 750 μg of cell lysate was incubated with 20 μL of FLAG-agarose bead slurry (Sigma Aldrich, USA) on a rotator at 4 °C for 4 hours. The sample was centrifuged at 12,000 rpm for 1 minute to precipitate the beads. After removing the supernatant, the remaining beads were washed three times with 200 μL of lysis buffer (RIPA).
After removing the final supernatant, the beads were eluted by boiling with 2× sample buffer at 98 °C for 5 minutes. The immunoprecipitated proteins were loaded, separated by SDS-PAGE, and analyzed by Western blotting.

EGFR = EGFR (Homo sapiens, UniProt P00533); assay: kinase profiling, EGFR; assay type: biochemical; settings: read-out: In vitro kinase inhibitory activity (%)
Chain of EGFR (P00533 669-1210 limits assumed): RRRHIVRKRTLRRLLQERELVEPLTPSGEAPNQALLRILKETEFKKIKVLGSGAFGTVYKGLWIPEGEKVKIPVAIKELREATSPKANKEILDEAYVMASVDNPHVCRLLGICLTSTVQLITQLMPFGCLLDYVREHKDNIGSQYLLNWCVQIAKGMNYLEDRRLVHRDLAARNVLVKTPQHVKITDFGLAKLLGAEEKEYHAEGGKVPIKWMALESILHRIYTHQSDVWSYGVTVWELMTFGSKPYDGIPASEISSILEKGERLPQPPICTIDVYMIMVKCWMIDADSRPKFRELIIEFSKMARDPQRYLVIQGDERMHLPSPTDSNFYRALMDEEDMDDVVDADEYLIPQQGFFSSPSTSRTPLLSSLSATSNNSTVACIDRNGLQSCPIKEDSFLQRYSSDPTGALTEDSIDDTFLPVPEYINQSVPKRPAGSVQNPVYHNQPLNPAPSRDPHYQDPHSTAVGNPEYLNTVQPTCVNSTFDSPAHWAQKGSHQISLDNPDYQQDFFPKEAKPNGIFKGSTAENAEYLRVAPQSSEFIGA
Procedure: (§1) Kinase inhibitory activity of the candidate compound at 10 μM and 25 μM was assessed using Eurofins Kinase Profiling Services. Inhibitory effects on c-RAF, EGFR, ErbB2, ErbB4, and PI3 kinase were analyzed according to the Kinase Profiler Service Assay protocol.

ErbB2 = ErbB2 (Homo sapiens, UniProt P04626); assay: kinase profiling, ErbB2; assay type: biochemical; settings: read-out: In vitro kinase inhibitory activity (%)
Chain of ErbB2 (P04626 676-1255 limits assumed): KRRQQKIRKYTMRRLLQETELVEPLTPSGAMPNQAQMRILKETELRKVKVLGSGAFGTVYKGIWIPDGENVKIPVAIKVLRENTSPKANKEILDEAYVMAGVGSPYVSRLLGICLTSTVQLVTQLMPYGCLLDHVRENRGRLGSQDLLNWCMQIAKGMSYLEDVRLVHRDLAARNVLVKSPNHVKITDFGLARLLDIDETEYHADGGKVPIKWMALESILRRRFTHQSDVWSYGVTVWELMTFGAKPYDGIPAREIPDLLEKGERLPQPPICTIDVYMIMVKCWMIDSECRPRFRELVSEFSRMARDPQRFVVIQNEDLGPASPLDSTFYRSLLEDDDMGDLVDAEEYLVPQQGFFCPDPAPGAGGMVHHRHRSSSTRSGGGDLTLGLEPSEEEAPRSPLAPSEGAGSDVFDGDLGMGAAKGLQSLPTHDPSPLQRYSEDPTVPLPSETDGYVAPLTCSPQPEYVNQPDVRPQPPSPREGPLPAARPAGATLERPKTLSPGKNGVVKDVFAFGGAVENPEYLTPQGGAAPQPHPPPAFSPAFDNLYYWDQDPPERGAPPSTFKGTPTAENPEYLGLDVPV
Procedure: as §1

ErbB4 = ErbB4 (Homo sapiens, UniProt Q15303); assay: kinase profiling, ErbB4; assay type: biochemical; settings: read-out: In vitro kinase inhibitory activity (%)
Chain of ErbB4 (Q15303 26-1308): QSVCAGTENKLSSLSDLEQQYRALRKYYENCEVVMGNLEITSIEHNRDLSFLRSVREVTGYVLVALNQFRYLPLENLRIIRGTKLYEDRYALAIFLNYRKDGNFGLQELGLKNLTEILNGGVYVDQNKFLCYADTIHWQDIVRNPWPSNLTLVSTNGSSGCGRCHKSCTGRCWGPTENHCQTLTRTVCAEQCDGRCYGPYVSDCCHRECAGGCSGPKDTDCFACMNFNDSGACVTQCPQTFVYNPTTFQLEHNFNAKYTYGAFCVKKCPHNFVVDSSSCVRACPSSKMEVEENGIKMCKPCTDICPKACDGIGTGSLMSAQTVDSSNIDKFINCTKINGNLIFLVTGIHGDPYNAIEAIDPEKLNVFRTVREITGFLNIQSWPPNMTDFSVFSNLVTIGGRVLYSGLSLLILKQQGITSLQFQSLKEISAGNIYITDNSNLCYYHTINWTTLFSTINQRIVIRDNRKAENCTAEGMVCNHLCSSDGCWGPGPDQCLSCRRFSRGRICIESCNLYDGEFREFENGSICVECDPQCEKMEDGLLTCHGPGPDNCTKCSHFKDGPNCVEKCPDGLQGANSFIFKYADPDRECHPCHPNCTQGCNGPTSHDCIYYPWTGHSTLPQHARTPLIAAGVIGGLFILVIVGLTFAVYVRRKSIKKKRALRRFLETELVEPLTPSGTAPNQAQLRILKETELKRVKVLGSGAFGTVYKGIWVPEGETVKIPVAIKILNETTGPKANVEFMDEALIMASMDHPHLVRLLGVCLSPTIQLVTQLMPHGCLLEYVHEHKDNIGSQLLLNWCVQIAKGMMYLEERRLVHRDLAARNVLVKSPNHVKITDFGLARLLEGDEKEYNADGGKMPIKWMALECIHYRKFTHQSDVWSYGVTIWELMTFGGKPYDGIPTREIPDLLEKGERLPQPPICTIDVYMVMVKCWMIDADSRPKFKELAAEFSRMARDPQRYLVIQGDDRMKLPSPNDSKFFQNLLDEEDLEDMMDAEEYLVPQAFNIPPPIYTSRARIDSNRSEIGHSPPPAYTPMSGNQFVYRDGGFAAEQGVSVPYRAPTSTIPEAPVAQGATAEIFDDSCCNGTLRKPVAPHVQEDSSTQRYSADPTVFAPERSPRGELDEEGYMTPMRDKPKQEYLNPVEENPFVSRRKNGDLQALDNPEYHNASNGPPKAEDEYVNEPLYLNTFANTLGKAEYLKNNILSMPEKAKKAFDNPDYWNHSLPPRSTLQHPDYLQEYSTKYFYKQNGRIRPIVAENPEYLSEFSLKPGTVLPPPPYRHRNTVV
Procedure: as §1

HER2 = assay: IHC of NCI-N87 xenograft tumors, HER2; assay type: in vivo, mice; settings: vs control group
Procedure: (§2) Xenograft mice were generated to evaluate the anticancer effects of the candidate compound. NCI-N87 and JIMT-1 cells (5×10^6 cells), dissolved in 100 μL of 1× phosphate-buffered saline (PBS), were subcutaneously injected into the right flanks of 5-week-old female athymic nude mice (Envigo, USA) or 4-week-old female NOD-SCID mice (Koatech, South Korea). When the tumors reached a volume of 90-100 mm^3, the mice were randomized into designated groups. For the NCI-N87 xenograft, intravenous administration was performed six times at 3-day intervals. For the JIMT-1 xenograft, intraperitoneal administration was performed eight times at 3-day intervals. […] Tumor size changes were monitored until the mean tumor size in the control group reached 2,000-2,500 mm^3. On day 28 for the NCI-N87 xenograft and day 46 for the JIMT-1 xenograft, the mice were sacrificed, and tumors were excised to determine relative tumor sizes. Tumor length (L) and width (W) were measured with calipers, and tumor volume was calculated using the formula: […]
(§3) For immunohistochemistry (IHC) analysis, tumors from the xenograft models were prepared as paraffin-embedded sections. […] The control group was counterstained with hematoxylin, and the IHC staining was evaluated under an optical microscope at 200× magnification.

Ki-67 = assay: IHC of NCI-N87 xenograft tumors, Ki-67; assay type: in vivo, mice; settings: vs control group
Procedure: as §2, §3

solubility = assay type: physicochemical; settings: pH 7
permeability = assay type: in vitro ADME
[3] = pharmacokinetic profiling; assay type: in vivo

IC50 [1]: 9.99 ± 0.2 µM
PPI inhibitory effect on MED23-IRF7 (MED23-IRF7 PPI): did not inhibit these PPIs
inhibition at 10 µM (EGFR; 10 μM): 0%
inhibition at 25 µM (EGFR; 25 μM): 0%
inhibition at 10 µM (ErbB2; ErbB2, 10 μM): 2%
inhibition at 25 µM (ErbB2; ErbB2, 25 μM): 0%
inhibition at 10 µM (ErbB4; ErbB4, 10 μM): 0%
inhibition at 25 µM (ErbB4; ErbB4, 25 μM): 0%
solubility (solubility): 103.2 ± 0.6 µg/mL (≈ 328 µM)
permeability (permeability): reasonable
half-life T1/2 (IV) ([3]; intravenous): 9.74 ± 2.76 h
bioavailability (Ft) ([3]; intravenous and oral routes): 25.1%
Compound: CC(=O)N1N=C(c2cccc(O)c2)CC1c1ccc(Cl)cc1 (stereo not shown) [Compound 15, 1-[5-(4-Chlorophenyl)-3-(3-hydroxyphenyl)-4,5-dihydropyrazol-1-yl]-ethanone]
interaction with MED23 fragments (MED23391-625 fragment): specifically interacted with the MED23391-625 fragment
luciferase activity [2]: dose-dependently and significantly reduced
HER2 levels reduction (HER2): approximately 1.8 fold
proliferation marker Ki-67 (Ki-67): significant decrease
